# From the kinase profiling compilation of Christmann-Franck et al. (2016)
# “And” between values parts separate entries of the source, which are not always exact repeats. Identical values can stand only once.
# Tests used:
# Assay in all cases: radiometric filter-binding kinase assay, Kinase HotSpot
# Details in all cases: compound 0.5 µM; ATP 10 µM
# [1] = target: EPHA3 (human) (UniProt P29320)
# [2] = target: FRK (human) (UniProt P42685)
# [3] = target: SYK (human) (UniProt P43405)
# [4] = target: CAMKK1 (human) (UniProt Q8N5S9)
# [5] = target: ROS1 (human) (UniProt P08922)
# [6] = target: MYO3B (human) (UniProt Q8WXR4)
# [7] = target: PAK7 (human) (UniProt Q9P286)
# Sequence of PAK7 (human) (Q9P286 whole entry, looked up): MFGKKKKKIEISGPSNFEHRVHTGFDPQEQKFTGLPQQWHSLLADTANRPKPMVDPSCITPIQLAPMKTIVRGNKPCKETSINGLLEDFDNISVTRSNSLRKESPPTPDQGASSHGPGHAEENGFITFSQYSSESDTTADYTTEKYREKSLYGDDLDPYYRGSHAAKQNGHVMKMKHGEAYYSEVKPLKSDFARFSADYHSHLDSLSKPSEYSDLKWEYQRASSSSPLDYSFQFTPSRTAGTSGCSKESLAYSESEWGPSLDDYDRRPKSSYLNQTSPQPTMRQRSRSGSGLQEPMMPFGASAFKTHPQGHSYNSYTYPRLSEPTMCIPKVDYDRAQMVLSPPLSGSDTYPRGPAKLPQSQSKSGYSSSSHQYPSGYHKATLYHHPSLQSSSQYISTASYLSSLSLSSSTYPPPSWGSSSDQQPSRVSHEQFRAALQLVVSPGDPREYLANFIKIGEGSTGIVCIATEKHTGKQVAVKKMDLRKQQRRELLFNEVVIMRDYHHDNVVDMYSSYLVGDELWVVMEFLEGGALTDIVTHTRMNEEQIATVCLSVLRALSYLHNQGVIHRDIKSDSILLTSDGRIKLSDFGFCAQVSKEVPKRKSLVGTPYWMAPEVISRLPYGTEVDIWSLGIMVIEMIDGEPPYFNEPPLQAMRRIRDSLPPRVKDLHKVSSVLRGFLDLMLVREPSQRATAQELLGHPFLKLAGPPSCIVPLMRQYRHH
# [8] = target: CHEK2 (human) (UniProt O96017)
# [9] = target: AURKA (human) (UniProt O14965)
# [10] = target: MARK1 (human) (UniProt Q9P0L2)
# Sequence of MARK1 (human) (Q9P0L2 whole entry, looked up): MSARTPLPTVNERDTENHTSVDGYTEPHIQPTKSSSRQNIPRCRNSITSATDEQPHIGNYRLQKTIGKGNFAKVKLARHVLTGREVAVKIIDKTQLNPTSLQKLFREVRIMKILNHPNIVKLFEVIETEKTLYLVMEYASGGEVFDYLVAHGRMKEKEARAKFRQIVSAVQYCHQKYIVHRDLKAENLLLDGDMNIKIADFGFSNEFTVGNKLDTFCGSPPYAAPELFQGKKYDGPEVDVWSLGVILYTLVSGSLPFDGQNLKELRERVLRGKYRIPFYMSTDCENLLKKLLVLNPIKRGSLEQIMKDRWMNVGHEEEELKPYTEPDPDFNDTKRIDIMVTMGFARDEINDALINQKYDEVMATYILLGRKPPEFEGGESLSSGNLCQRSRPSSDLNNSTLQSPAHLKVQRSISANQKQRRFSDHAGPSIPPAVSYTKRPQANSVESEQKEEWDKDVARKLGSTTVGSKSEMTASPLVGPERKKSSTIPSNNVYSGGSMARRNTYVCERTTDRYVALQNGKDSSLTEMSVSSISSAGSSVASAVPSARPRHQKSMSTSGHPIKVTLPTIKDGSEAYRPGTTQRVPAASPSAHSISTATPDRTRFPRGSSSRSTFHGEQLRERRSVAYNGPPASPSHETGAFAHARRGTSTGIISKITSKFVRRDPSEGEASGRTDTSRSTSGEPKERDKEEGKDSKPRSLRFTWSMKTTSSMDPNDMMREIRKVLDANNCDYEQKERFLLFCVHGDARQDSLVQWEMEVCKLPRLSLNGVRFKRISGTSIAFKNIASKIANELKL
# [11] = target: DYRK1B (human) (UniProt Q9Y463)
# [12] = target: MAPK3 (human) (UniProt P27361)
# [13] = target: CDK5 CDK5R1 p35 (human) (UniProt Q00535+Q15078)
# [14] = target: MAPK14 (human) (UniProt Q16539)
# [15] = target: MELK (human) (UniProt Q14680)
# [16] = target: FGR (human) (UniProt P09769)
# [17] = target: DAPK3 (human) (UniProt O43293)
# [18] = target: NTRK1 (human) (UniProt P04629)
# [19] = target: PAK1 (human) (UniProt Q13153)
# [20] = target: MYLK2 (human) (UniProt Q9H1R3)
# [21] = target: PKN1 (human) (UniProt Q16512)
# [22] = target: PRKCE (human) (UniProt Q02156)
# Sequence of PRKCE (human) (Q02156 whole entry, looked up): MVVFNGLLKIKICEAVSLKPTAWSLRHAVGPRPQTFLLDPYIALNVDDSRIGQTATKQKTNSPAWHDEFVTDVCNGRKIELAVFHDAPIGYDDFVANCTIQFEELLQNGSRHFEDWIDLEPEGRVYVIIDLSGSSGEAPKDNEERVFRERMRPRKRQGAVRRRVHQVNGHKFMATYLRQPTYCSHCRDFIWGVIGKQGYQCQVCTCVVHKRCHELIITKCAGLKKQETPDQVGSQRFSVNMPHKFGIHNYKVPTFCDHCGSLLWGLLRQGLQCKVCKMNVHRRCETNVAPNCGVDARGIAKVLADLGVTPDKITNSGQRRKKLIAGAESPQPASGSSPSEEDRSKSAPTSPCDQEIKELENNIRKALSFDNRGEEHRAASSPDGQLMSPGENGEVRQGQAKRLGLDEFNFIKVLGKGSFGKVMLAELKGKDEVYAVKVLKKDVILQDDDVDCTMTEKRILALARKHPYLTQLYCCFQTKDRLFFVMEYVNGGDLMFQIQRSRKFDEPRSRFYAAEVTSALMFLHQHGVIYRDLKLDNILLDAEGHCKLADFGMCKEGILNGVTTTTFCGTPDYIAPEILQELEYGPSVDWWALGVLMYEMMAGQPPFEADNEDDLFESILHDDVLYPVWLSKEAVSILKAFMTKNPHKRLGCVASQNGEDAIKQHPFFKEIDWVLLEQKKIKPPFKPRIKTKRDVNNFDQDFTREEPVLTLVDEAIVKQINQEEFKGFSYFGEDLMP
# [23] = target: CDK9 CCNK (human) (UniProt O75909+P50750)
# [24] = target: ULK3 (human) (UniProt Q6PHR2)
# [25] = target: PLK3 (human) (UniProt Q9H4B4)
# [26] = target: MAP3K2 (human) (UniProt Q9Y2U5)
# [27] = target: GRK6 (human) (UniProt P43250)
# [28] = target: RPS6KB1 (human) (UniProt P23443)
# [29] = target: ULK1 (human) (UniProt O75385)
# Sequence of ULK1 (human) (O75385 whole entry, looked up): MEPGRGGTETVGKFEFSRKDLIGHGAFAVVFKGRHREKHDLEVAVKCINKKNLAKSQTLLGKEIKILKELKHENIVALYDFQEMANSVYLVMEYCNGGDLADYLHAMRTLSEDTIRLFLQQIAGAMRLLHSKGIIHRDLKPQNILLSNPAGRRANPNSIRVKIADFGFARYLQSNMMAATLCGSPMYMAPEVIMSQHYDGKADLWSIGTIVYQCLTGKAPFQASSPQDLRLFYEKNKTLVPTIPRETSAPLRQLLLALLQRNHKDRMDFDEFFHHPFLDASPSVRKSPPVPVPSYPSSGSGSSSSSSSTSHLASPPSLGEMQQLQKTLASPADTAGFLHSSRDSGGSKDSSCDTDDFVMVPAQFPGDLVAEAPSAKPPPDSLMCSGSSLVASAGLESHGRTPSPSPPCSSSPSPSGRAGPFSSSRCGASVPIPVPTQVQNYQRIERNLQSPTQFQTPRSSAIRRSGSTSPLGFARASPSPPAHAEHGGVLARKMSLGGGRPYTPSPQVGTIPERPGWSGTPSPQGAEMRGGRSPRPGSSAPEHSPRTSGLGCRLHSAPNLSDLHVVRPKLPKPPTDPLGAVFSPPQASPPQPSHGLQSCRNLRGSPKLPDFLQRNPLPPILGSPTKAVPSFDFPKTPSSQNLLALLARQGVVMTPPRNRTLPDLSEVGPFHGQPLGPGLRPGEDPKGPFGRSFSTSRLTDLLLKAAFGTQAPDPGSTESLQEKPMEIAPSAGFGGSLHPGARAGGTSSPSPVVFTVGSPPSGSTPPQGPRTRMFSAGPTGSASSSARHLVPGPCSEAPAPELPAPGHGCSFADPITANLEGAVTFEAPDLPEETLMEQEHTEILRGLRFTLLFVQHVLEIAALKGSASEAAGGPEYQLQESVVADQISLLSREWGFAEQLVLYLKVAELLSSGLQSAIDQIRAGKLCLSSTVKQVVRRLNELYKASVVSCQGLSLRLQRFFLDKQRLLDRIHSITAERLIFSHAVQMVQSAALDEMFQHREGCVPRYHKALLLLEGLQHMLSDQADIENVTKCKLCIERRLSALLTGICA
# [30] = target: PNCK (human) (UniProt Q6P2M8)
# [31] = target: CAMK2G (human) (UniProt Q13555)
# [32] = target: CSNK1G2 (human) (UniProt P78368)
# [33] = target: CDK1 CCNB1 (human) (UniProt P06493+P14635)
# [34] = target: GSK3B (human) (UniProt P49841)
# [35] = target: FYN (human) (UniProt P06241)
# [36] = target: FGFR2 (human) (UniProt P21802)
# [37] = target: PRKG1 (human) (UniProt Q13976)
# Sequence of PRKG1 (human) (Q13976 whole entry, looked up): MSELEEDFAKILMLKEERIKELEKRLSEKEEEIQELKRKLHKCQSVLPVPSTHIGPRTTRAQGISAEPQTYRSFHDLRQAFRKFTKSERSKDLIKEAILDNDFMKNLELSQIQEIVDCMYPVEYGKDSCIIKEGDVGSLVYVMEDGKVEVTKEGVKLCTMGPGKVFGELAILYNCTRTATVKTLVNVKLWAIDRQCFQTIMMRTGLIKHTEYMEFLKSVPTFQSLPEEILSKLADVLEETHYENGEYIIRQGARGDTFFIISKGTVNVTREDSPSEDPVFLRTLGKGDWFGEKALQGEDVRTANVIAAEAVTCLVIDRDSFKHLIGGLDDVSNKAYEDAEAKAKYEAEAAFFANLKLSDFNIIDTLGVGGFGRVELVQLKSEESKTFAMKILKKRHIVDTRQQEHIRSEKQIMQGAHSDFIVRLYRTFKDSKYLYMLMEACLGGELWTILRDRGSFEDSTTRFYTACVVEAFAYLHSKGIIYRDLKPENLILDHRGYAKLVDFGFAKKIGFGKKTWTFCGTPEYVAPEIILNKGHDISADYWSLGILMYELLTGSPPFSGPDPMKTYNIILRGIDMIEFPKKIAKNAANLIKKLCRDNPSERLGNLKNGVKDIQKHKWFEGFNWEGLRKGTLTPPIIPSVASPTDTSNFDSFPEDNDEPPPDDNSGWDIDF
# [38] = target: PRKCH (human) (UniProt P24723)
# [39] = target: LTK (human) (UniProt P29376)
# [40] = target: EPHA1 (human) (UniProt P21709)
# [41] = target: CAMKK2 (human) (UniProt Q96RR4)
# [42] = target: MAPKAPK3 (human) (UniProt Q16644)
# Sequence of EPHA3 (human) (P29320 whole entry, looked up): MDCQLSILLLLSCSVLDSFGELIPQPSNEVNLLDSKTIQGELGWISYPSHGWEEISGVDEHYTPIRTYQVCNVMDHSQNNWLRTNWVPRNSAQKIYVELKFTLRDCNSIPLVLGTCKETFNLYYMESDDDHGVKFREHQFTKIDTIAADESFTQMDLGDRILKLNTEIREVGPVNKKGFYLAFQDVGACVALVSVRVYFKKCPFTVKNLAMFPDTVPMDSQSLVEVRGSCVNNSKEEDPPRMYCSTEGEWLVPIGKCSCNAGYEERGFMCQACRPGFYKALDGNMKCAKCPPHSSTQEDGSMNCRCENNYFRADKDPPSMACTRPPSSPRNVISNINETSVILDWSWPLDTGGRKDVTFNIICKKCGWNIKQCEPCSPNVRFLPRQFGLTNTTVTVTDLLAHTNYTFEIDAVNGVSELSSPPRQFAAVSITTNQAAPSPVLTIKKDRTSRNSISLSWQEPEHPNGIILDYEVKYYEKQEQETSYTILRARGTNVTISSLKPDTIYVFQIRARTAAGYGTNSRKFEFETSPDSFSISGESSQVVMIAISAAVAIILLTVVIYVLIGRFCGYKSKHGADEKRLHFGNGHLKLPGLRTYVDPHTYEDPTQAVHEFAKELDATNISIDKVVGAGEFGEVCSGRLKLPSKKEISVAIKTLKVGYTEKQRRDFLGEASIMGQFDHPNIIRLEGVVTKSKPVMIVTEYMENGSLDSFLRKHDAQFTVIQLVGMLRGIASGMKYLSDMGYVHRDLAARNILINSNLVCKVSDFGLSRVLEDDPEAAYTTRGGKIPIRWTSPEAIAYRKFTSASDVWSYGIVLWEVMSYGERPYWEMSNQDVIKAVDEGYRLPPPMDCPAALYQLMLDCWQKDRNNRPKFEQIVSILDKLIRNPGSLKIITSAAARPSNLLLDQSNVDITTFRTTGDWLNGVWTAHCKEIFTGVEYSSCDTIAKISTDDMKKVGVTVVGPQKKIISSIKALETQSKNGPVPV
smiles,measurement,setting,value
O=C1NC(=O)/C(=C/c2ccc3c(c2)OC(F)(F)O3)S1,residual activity,[1],97.6%
same,residual activity,[2],93.4%
same,residual activity,[3],95.3%
same,residual activity,[4],86%
same,residual activity,[5],88.5%
same,residual activity,[6],87.9%
same,residual activity,[7],93%
same,residual activity,[8],97.9%
same,residual activity,[9],92.4%
same,residual activity,[10],97.2%
same,residual activity,[11],101%
same,residual activity,[12],91.6%
same,residual activity,[13],103%
same,residual activity,[14],86.7%
same,residual activity,[15],94.4%
same,residual activity,[16],95.8%
same,residual activity,[17],104%
same,residual activity,[18],92.5%
same,residual activity,[19],93.3%
same,residual activity,[20],96.6%
same,residual activity,[21],98.5%
same,residual activity,[22],103%
same,residual activity,[23],93.5%
same,residual activity,[24],109%
same,residual activity,[25],92.4%
same,residual activity,[26],94%
same,residual activity,[27],95.4%
same,residual activity,[28],85.1%
same,residual activity,[29],100%
same,residual activity,[30],96%
same,residual activity,[31],102%
same,residual activity,[32],84.5%
same,residual activity,[33],99.6%
same,residual activity,[34],92.3%
same,residual activity,[35],96%
same,residual activity,[36],97.6%
same,residual activity,[37],109% and 95.6%
same,residual activity,[38],92.7%
same,residual activity,[39],95.5%
same,residual activity,[40],90.2%
same,residual activity,[41],82.9%
same,residual activity,[42],94.2%
O=C1Nc2ccc(Cl)cc2/C1=C/c1cc(Cl)c(O)c(Cl)c1,residual activity,[1],82.5%
same,residual activity,[2],70.3%
same,residual activity,[3],93.3%
same,residual activity,[4],52.5%
same,residual activity,[5],89.7%
same,residual activity,[6],17.4%
same,residual activity,[7],91.5%
same,residual activity,[8],70.2%
same,residual activity,[9],64.2%
same,residual activity,[10],89.5%
same,residual activity,[11],90.9%
same,residual activity,[12],88.2%
same,residual activity,[13],94.5%
same,residual activity,[14],74.6%
same,residual activity,[15],83.6%
same,residual activity,[16],84.8%
same,residual activity,[17],82.3%
same,residual activity,[18],87.4%
same,residual activity,[19],97.2%
same,residual activity,[20],71.5%
same,residual activity,[21],93%
same,residual activity,[22],100%
same,residual activity,[23],79.4%
same,residual activity,[24],92.2%
same,residual activity,[25],98.2%
same,residual activity,[26],95.7%
same,residual activity,[27],89.6%
same,residual activity,[28],91%
same,residual activity,[29],95%
same,residual activity,[30],94.2%
same,residual activity,[31],119%
same,residual activity,[32],83.5%
same,residual activity,[33],96.3%
same,residual activity,[34],80.8%
same,residual activity,[35],73%
same,residual activity,[36],92%
same,residual activity,[37],102% and 96.8%
same,residual activity,[38],90.8%
same,residual activity,[39],36.9%
same,residual activity,[40],88.9%
same,residual activity,[41],51.5%
same,residual activity,[42],88.4%
Cc1[nH]c(/C=C2\C(=O)Nc3ccc(S(=O)(=O)N(C)c4cccc(Cl)c4)cc32)c(C)c1C(=O)N1CCN(C)CC1,residual activity,[1],103%
same,residual activity,[2],95.4%
same,residual activity,[3],96.7%
same,residual activity,[4],93.3%
same,residual activity,[5],69.6%
same,residual activity,[6],72.5%
same,residual activity,[7],97.1%
same,residual activity,[8],85.1%
same,residual activity,[9],27.6%
same,residual activity,[10],62.5%
same,residual activity,[11],98.9%
same,residual activity,[12],106%
same,residual activity,[13],95.8%
same,residual activity,[14],86.2%
same,residual activity,[15],78.9%
same,residual activity,[16],39.2%
same,residual activity,[17],106%
same,residual activity,[18],7.81%
same,residual activity,[19],87.7%
same,residual activity,[20],73.8%
same,residual activity,[21],86.4%
same,residual activity,[22],99.1%
same,residual activity,[23],90.2%
same,residual activity,[24],55.3%
same,residual activity,[25],95%
same,residual activity,[26],68.5%
same,residual activity,[27],89.7%
same,residual activity,[28],83.7%
same,residual activity,[29],5.17%
same,residual activity,[30],101%
same,residual activity,[31],119%
same,residual activity,[32],99.7%
same,residual activity,[33],101%
same,residual activity,[34],96.1%
same,residual activity,[35],67.1%
same,residual activity,[36],74.1%
same,residual activity,[37],93.2% and 97.1%
same,residual activity,[38],88.7%
same,residual activity,[39],45.5%
same,residual activity,[40],108%
same,residual activity,[41],75.2%
same,residual activity,[42],96.9%
